Values quoted from earlier work as cited in US20190011434A1, “METHODS TO DETERMINE CANCER TREATMENT USING ROBOTIC HIGH-THROUGHPUT DRUG SENSITIVITY TESTING” (AntiCancer, Inc., priority 2017, published 2019).

Columns and labels:
[1] = tested on: primary tumor and axillary lymph node metastasis from breast cancer patients; conditions: 30 patients; cutoff drug concentrations; 7 days incubation; p<0.05
[2] = tested on: head and neck squamous cell carcinoma (HNSCC) tumor specimens; conditions: 41 evaluated tumors; cisplatin 15 microg/mL or 5-fluorouracil 40 microg/mL; sensitivity = inhibition rate greater than 30%

| SMILES | Chemosensitivity of lymph node metastases compared with primary tumor [1] | Resistance in the HDRA (share of cases) [2] |
| --- | --- | --- |
| O=c1[nH]cc(F)c(=O)[nH]1 [5-fluorouracil] | more resistant than the primary tumor | 32% |
| COc1cccc2c1C(=O)c1c(O)c3c(c(O)c1C2=O)C[C@@](O)(C(=O)CO)C[C@@H]3O[C@H]1C[C@H](N)[C@H](O)[C@H](C)O1 [DOX, doxorubicin] | more resistant than the primary tumor | – |
| CO[C@@]12[C@H](COC(N)=O)C3=C(C(=O)C(C)=C(N)C3=O)N1C[C@@H]1N[C@@H]12 [MMC, mitomycin C] | more resistant than the primary tumor | – |
| N.N.[Cl][Pt][Cl] [cisplatinum] | not | 32% |
